Test system: Helicobacter pylori Strain 4187E
Assay: In vivo activity against Helicobacter pylori strain 4187E in mice
Design: species or system in outbred female white mice
Settings: oral gavage, four days
Description: Outbred female white mice (20 grams) were infected by oral gavage with 10^7 -10^8 colony forming units of H. pylori strain 4187E (originally isolated from a patient with a duodenal ulcer). […] Treatment continued for four days. Clarithromycin, administered at the same concentration and for the same duration, was included as a positive control. One group of animals also received an equal volume of formulation vehicle alone, to provide a negative control.
Five days after cessation of treatment, all animals were sacrificed, the stomachs were removed, opened, and the contents washed out. The entire mucosal surface was then spread evenly over the surface of an agar plate containing antibiotics appropriate for the prevention of growth of microorganisms other than Helicobacter spp. After seven days incubation under microaeropilic conditions at 37° C., culture plates were evaluated for bacterial growth.

Q: `O=[N+]([O-])c1cn2c(n1)OC[C@@H](OCc1ccc(OC(F)(F)F)cc1)C2` [PA-824, 3S 4-(Trifluromethoxy)benzyloxy-6-nitro-2H-3,4-dihydro-[2-1b]imidazopyran] was tested. Which “% Eradication” value (once daily 25 mg/kg) did it give?
A: 0%

Q: What about the “% Eradication” value (twice daily 5 mg/kg) of the same compound?
A: 10%

Q: And the “% Eradication” value (twice daily 50 mg/kg)?
A: 100%

Source: patent publication US6087358A (priority 1997, dated 2000)
